Results on 44 molecules are retold here after patent publication US7772251B2, “N-sulphonylated amino acid derivatives, method for the production and use thereof” (The Medicines Company (Leipzig) GmbH, priority 2003, dated 2010).

In general, Ki refers to a dissociation constant, usually derived from enzyme kinetics or from competition with a known ligand. Low readings indicate a stronger hold on the target, high ones a looser hold on the target.

The subject of one assay is matriptase-expressing colon carcinoma cell line DLD-1. The assay can be described thus: Inhibition of invasive growth (Matrigel invasion assay). The class given is cell-based. The settings on record: proHGF-stimulated; inhibitor 30 μM; 48 hours; FIG. 1. An excerpt:
A common test system for invasive growth at the cellular level is the Matrigel invasion assay. This entails cells being applied to an artificial extracellular matrix and investigation of how many cells migrate through the latter within a defined period.
It is shown here by way of example for the matriptase inhibitors 37 and 54 that invasive growth is influenced and the migration of matriptase-expressing colon carcinoma cell line DLD-1 through Matrigel is inhibited:
The wells of a ‘Transwell’ plate were each coated with 10 μg of Matrigel and 160 000 DLD-1 cells (Dexter et al, Cancer Research 39: 1020-1025 (1979)) in 100 μl of medium (RPMI 1640, with 2% Ultroser HY serum substituted) were applied to each, invasive growth was stimulated by adding ProHGF in 400 μl of medium with and without inhibitor (30 μM). After incubation at 37° C. and 5% CO2 for 48 hours, the cells which had migrated through the matrix were fixed, stained and photographed at 100× magnification.
As for `N=C(N)NCCC1CCN(C(=O)[C@H](Cc2cccc(C(=N)N)c2)NS(=O)(=O)c2ccc3ccccc3c2)CC1.O=C(O)C(F)(F)F.O=C(O)C(F)(F)F` [Compound 37, 2-Nas-Phe(3-Am) 4(guanidinoethyl)piperidide], the “inhibition of migration/invasion of DLD-1 cells through Matrigel” value is “inhibited”.

The next assay addresses T1, matriptase (Homo sapiens, UniProt Q9Y5Y6).
T1 construct: Met-Lys-(His)6 (N, cleaved yes); made in house; host or cells: Escherichia coli BL21 (DE3), vector pET24
T1 sequence (Q9Y5Y6 615-854 limits assumed): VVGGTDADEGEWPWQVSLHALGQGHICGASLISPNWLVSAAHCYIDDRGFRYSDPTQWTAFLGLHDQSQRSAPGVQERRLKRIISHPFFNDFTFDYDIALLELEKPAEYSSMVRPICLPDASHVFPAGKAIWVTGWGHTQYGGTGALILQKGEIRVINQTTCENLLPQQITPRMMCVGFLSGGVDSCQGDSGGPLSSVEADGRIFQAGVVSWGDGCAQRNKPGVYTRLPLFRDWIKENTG
The assay can be described thus: Determination of Ki values for the inhibition of matriptase (chromogenic substrate CH3SO2-D-HHT-Gly-Arg-pNA). The class given is biochemical. The following applies: 25° C, pH 8.0, Dixon method, average of three determinations. The method, then:
Preparation of the Catalytic Domain of Matriptase
The steps were in detail:
Activation: Since a correctly processed N terminus is a precondition for the activity of serine proteases, it was necessary to delete the peptide MK(His)6 to activate the refolded matriptase. For this purpose, the refolding mixture was incubated with 2.5 mU per 50 μg of protein of activated DAPase™ (Qiagen) at 30° C. for 2 h, and the activated matriptase was separated from the non-activated matriptase and the DAPase by metal chelate chromatography.
The proteolytic activity was detected by cleavage of the chromogenic substrate Pefachrome tPA (Pentapharm).
As to `N=C(N)c1cccc(CC(NC(=O)CNS(=O)(=O)c2ccc3ccccc3c2)C(=O)N2CCC(C(=O)NCCCN)CC2)c1` (stereo not drawn) [Compound 48], the Ki is 360 nM.

Molecule `N=C(N)c1cccc(C[C@H](NS(=O)(=O)c2ccc3cc4ccccc4cc3c2)C(=O)N2CCN(C(=O)CCN)CC2)c1` [Compound 10, anthracenesulfonyl-Phe(3-Am)-Pzd-β-Ala] displayed a Ki of 270 nM.

For `N=C(N)CCNC(=O)C1CCN(C(=O)C(Cc2cccc(C(=N)N)c2)NC(=O)CNS(=O)(=O)c2ccc3ccccc3c2)CC1` (stereo not drawn) [Compound 49], the Ki is 160 nM.

`N=C(N)c1cccc(C[C@H](NS(=O)(=O)c2ccc3ccccc3c2)C(=O)N2CCC(CCN)CC2)c1` [Compound 36, 2-Nas-Phe(3-Am) 4(aminoethyl)piperidide] registered an inhibition constant (Ki) of 110 nM.

With “2,4,6-triisopropylphenylsulfonyl-Phe(3-Am)-iNip-DAE-H [Compound 3]”, the Ki amounted to 53 nM.

The molecule `N=C(N)c1cccc(CC(NC(=O)CNS(=O)(=O)c2ccc3ccccc3c2)C(=O)N2CCN(C(=O)CCN)CC2)c1` (stereo not drawn) [Compound 40] came in with a Ki of 7200 nM.

As for `N=C(N)c1cccc(CC(NS(=O)(=O)c2ccc3c(c2)CCCC3)C(=O)N2CCN(C(=O)CCN)CC2)c1` (stereo not drawn) [Compound 14], affinity was put at a Ki of 400 nM.

As for `N=C(N)c1cccc(CC(NS(=O)(=O)c2ccc(C3CCCCC3)cc2)C(=O)N2CCC(C(=O)N3CCN(C(=N)N)CC3)CC2)c1` (stereo not drawn) [Compound 54], the affinity, expressed as Ki, was 32 nM.

Consider `N=C(N)c1cccc(CC(NS(=O)(=O)c2ccc(C3CCCCC3)cc2)C(=O)N2CCN(C(=O)CCN)CC2)c1` (stereo not drawn) [Compound 17], for which the Ki was 140 nM.

As for `N=C(N)c1cccc(CC(NS(=O)(=O)c2ccc(C3CCCCC3)cc2)C(=O)N2CCNCC2)c1` (stereo not drawn) [Compound 58], affinity was put at a Ki of 550 nM.

Regarding `N=C(N)c1cccc(CC(NC(=O)CNS(=O)(=O)c2ccc3ccccc3c2)C(=O)N2CCC(C(=O)NCCCNC(=O)OCc3ccccc3)CC2)c1` (stereo not drawn) [Compound 47], the affinity, expressed as Ki, was 3900 nM.

In the case of `N=C(N)NCCC(=O)N1CCN(C(=O)C(Cc2cccc(C(=N)N)c2)NS(=O)(=O)c2ccc3c(c2)CCCC3)CC1` (stereo not drawn) [Compound 15], affinity was put at a Ki of 300 nM.

As for `CC(C)c1cc(C(C)C)c(S(=O)(=O)NC(Cc2cccc(C(=N)N)c2)C(=O)N2CCN(C(=O)CCCNC(=N)N)CC2)c(C(C)C)c1` (stereo not drawn) [Compound 7], the Ki is 56 nM.

On to `N=C(N)NCCC1CCN(C(=O)C(Cc2cccc(C(=N)N)c2)NS(=O)(=O)CCc2cccc3ccccc23)CC1` (stereo not drawn) [Compound 43], for which the affinity corresponds to a Ki of 180 nM.

In the case of `N=C(N)c1cccc(CC(NS(=O)(=O)c2ccc3ccccc3c2)C(=O)N2CCN(C(=O)CCN)CC2)c1` (stereo not drawn) [Compound 12], the inhibitory constant (Ki) amounted to 830 nM.

`N=C(N)c1cccc(CC(NS(=O)(=O)CCc2cccc3ccccc23)C(=O)N2CCC(CCN)CC2)c1` (stereo not drawn) [Compound 42]: the affinity, expressed as Ki, was 360 nM.

`N=C(N)NCCNC(=O)C1CCN(C(=O)C(Cc2cccc(C(=N)N)c2)NS(=O)(=O)c2ccc3c(c2)C(O)c2ccccc2C3O)CC1` (stereo not drawn) [Compound 32] gave a Ki of 9.8 nM.

As to `N=C(N)CC(=O)N1CCN(C(=O)C(Cc2cccc(C(=N)N)c2)NS(=O)(=O)c2ccc(C3CCCCC3)cc2)CC1` (stereo not drawn) [Compound 61], the Ki was determined as 380 nM.

`N=C(N)c1cccc(CC(NS(=O)(=O)c2ccc3ccccc3c2)C(=O)N2CC(C(=O)N3CCN(C(=N)N)CC3)C2)c1` (stereo not drawn) [Compound 67] had a Ki of 3400 nM.

In turn, `N=C(N)c1cccc(CC(NS(=O)(=O)Cc2ccc3ccccc3c2)C(=O)N2CCN(C(=O)CCN)CC2)c1` (stereo not drawn) [Compound 25] returned a Ki of 2400 nM.

For “2,4,6-triisopropylphenylsulfonyl-Phe(3Am)-iNip-NH—CH2—CH2-guanidino [Compound 34]”, the Ki came to 140 nM.

Turning to `N=C(N)NCCC(=O)N1CCN(C(=O)[C@H](Cc2cccc(C(=N)N)c2)NS(=O)(=O)c2ccc3cc4ccccc4cc3c2)CC1` [Compound 11, anthracenesulfonyl-Phe(3-Am)-Pzd-CO—CH2—CH2-guanidino], affinity was put at a Ki of 44 nM.

Molecule `N=C(N)c1cccc(CC(NS(=O)(=O)c2ccc3ccccc3c2)C(=O)N2CC(C(=O)N3CCNCC3)C2)c1` (stereo not drawn) [Compound 66] showed a Ki of 13000 nM.

`N=C(N)CCNC(=O)C1CCN(C(=O)C(Cc2cccc(C(=N)N)c2)NS(=O)(=O)c2ccc3ccccc3c2)CC1` (stereo not drawn) [Compound 35]: the Ki amounted to 160 nM.

`CC(C)c1cc(C(C)C)c(S(=O)(=O)NC(Cc2cccc(C(=N)N)c2)C(=O)N2CCN(C(=O)C3CCN(C(=O)OC(C)(C)C)CC3)CC2)c(C(C)C)c1` (stereo not drawn) [Compound 65] showed a Ki of 830 nM.

For `N=C(N)c1cccc(CC(NS(=O)(=O)c2ccc(-c3ccccc3)cc2)C(=O)N2CCN(C(=O)CCN)CC2)c1` (stereo not drawn) [Compound 19], the Ki came out at 600 nM.

The molecule `N=C(N)c1cccc(CC(NS(=O)(=O)c2ccc(C3CCCCC3)cc2)C(=O)N2CCN(C(=N)N)CC2)c1` (stereo not drawn) [Compound 55] registered a Ki of 980 nM.

Molecule `N=C(N)c1cccc(CC(NS(=O)(=O)c2ccc3c(c2)C(=O)c2ccccc2C3=O)C(=O)N2CCN(C(=O)CCN)CC2)c1` (stereo not drawn) [Compound 2] yielded a Ki of 160 nM.

`N=C(N)CC(=O)N1CCN(C(=O)C(Cc2cccc(C(=N)N)c2)NS(=O)(=O)c2ccc3ccccc3c2)CC1` (stereo not drawn) [Compound 62] returned a Ki of 1100 nM.

Turning to `CC(C)(C)c1ccc(S(=O)(=O)NC(Cc2cccc(C(=N)N)c2)C(=O)N2CCN(C(=O)CCNC(=N)N)CC2)cc1` (stereo not drawn) [Compound 22], the Ki is 200 nM.

For the molecule `N=C(N)c1cccc(CC(NS(=O)(=O)c2ccc(C3CCCCC3)cc2)C(=O)N2CCC(CCN)CC2)c1` (stereo not drawn) [Compound 45], the affinity corresponds to a Ki of 140 nM.

For `N=C(N)c1cccc(CC(NS(=O)(=O)c2cccc3c2CCCC3)C(=O)N2CCN(C(=O)CCN)CC2)c1` (stereo not drawn) [Compound 16], the Ki turned out to be 990 nM.

Take `N=C(N)c1cccc(CC(NS(=O)(=O)c2cccc3ccccc23)C(=O)N2CCC(CCN)CC2)c1` (stereo not drawn) [Compound 39]: affinity was put at a Ki of 170 nM.

As for `N=C(N)NCCC1CCN(C(=O)C(Cc2cccc(C(=N)N)c2)NC(=O)CNS(=O)(=O)c2ccc3c(c2)Cc2ccccc2C3)CC1` (stereo not drawn) [Compound 68], the Ki amounted to 38 nM.

With `N=C(N)c1cccc(CC(NC(=O)CNS(=O)(=O)c2ccc3ccccc3c2)C(=O)N2CCC(CCN)CC2)c1` (stereo not drawn) [Compound 44], the inhibition constant Ki is 21000 nM.

Molecule `N=C(N)NCCC1CCN(C(=O)C(Cc2cccc(C(=N)N)c2)NS(=O)(=O)c2cccc3ccccc23)CC1` (stereo not drawn) [Compound 41] had a Ki of 74 nM.

For `N=C(N)NCCC(=O)N1CCN(C(=O)C(Cc2cccc(C(=N)N)c2)NS(=O)(=O)Cc2ccc3ccccc3c2)CC1` (stereo not drawn) [Compound 26], the Ki was found to be 400 nM.

Molecule `N=C(N)c1cccc(CC(NS(=O)(=O)c2ccc(C3CCCCC3)cc2)C(=O)N2CCN(C(=O)C3CCNCC3)CC2)c1` (stereo not drawn) [Compound 60] came in with a Ki of 310 nM.

The molecule `Cc1c(C)c(S(=O)(=O)NC(Cc2cccc(C(=N)N)c2)C(=O)N2CCN(C(=O)CCN)CC2)c(C)c2c1OC(C)(C)C2` (stereo not drawn) [Compound 23] had a Ki of 3300 nM.

Regarding `N=C(N)c1cccc(CC(NC(=O)CNS(=O)(=O)c2ccc(S(=O)(=O)N3CCOCC3)cc2)C(=O)N2CCN(C(=O)CCN)CC2)c1` (stereo not drawn) [Compound 50], the Ki amounted to 3500 nM.

Molecule `N=C(N)c1cccc(CC(NS(=O)(=O)c2ccc3c(c2)C(=O)c2ccccc2C3=O)C(=O)N2CCN(C(=O)C3CNC3)CC2)c1` (stereo not drawn) [Compound 27] gave an inhibition constant (Ki) of 460 nM.

In turn, `N=C(N)NCCC(=O)N1CCN(C(=O)C(Cc2cccc(C(=N)N)c2)NC(=O)CNS(=O)(=O)c2ccc(S(=O)(=O)N3CCOCC3)cc2)CC1` (stereo not drawn) [Compound 51] had a Ki of 890 nM.

Regarding `CC(C)(C)c1ccc(S(=O)(=O)NC(Cc2cccc(C(=N)N)c2)C(=O)N2CCN(C(=O)CCN)CC2)cc1` (stereo not drawn) [Compound 21], the affinity corresponds to a Ki of 470 nM.

The subject of another assay is matriptase-expressing prostate carcinoma cells (PC-3). Nature of the assay: Inhibition of proHGF-induced cell scattering (scatter assay). The class given is cell-based. The settings on record: proHGF-stimulated; inhibitor 3 μM; 6 days; FIG. 2. An excerpt:
Because of its ability to induce the detachment of cells from an isolated assemblage and the dissemination of the cells, HGF is also referred to as scatter factor. This function can be detected at the cellular level with the aid of the so-called scatter assay. This entails the cells being seeded and their dissemination stimulated by the addition of HGF being recorded after a defined time. […] It is shown below by way of example for the matriptase inhibitors 37 and 54 that activation of proHGF by cellular matriptase is prevented and the scattering of proHGF-stimulated cells is reduced.
For this purpose, 500 matriptase-expressing prostate carcinoma cells (PC-3) were seeded in each well of a 96-well plate and incubated (37° C., 5% CO2) in 100 μl of medium without fetal calf serum (Nut Mix. F-12, 2% Ultroser HY) overnight, and then the scattering was stimulated by adding proHGF with and without matriptase inhibitors (3 μM). After 6 days, the cells were fixed and stained, and representative sections were photographed at 100× magnification.
As to `N=C(N)NCCC1CCN(C(=O)[C@H](Cc2cccc(C(=N)N)c2)NS(=O)(=O)c2ccc3ccccc3c2)CC1.O=C(O)C(F)(F)F.O=C(O)C(F)(F)F` [Compound 37, 2-Nas-Phe(3-Am) 4(guanidinoethyl)piperidide], the “inhibition of proHGF-induced scattering of PC-3 cells” value was “inhibit the proHGF-induced scattering of PC-3 cells”.
